{"source": "patent US11214803B2", "about": "“Modulators of YAP1 expression” (Ionis Pharmaceuticals, Inc., priority 2019, dated 2022)", "tested_on": "Yap1 mRNA", "test": "Antisense inhibition of human Yap1 in A-431 cells by cEt gapmers, single dose (Example 2, RTS4814)", "format": "cell-based", "procedure,_shortened": "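A-431 cells (5,000/well) took up 2,000 nM 3-10-3 cEt gapmer by free uptake for ~48 h. Yap1 mRNA was quantified by qRT-PCR with primer probe set RTS4814, normalized to RIBOGREEN total RNA, and reported as % of untreated control.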", "key": {"[1]": {"settings": "Table 21, Yap1 mRNA, percent of untreated control, 3-10-3 cEt gapmers targeting SEQ ID NO.: 1 and 2"}, "[2]": {"settings": "A-431 cells, 5,000 cells per well, free uptake, 2,000 nM modified oligonucleotide, approx. 48 hours, RTS4814, normalized to RIBOGREEN, Table 4, asterisk (*) = targets amplicon region of primer probe set"}, "[3]": {"settings": "Table 6, A-431 cells, 5,000 cells per well, free uptake, 2,000 nM modified oligonucleotide, approx. 48 hours, RTS4814, normalized to RIBOGREEN, Yap1 mRNA relative to untreated control cells"}, "[4]": {"settings": "Yap1 mRNA as percent of untreated control, A-431 cells, 3-10-3 cEt gapmers targeting SEQ ID NO.: 1, and 2, Table 30"}, "[5]": {"settings": "Table 24, Yap1 mRNA as percent of untreated control, 3-10-3 cEt gapmers targeting SEQ ID NO.: 1, and 2"}, "[6]": {"settings": "Table 25, Yap1 mRNA as percent of untreated control, 3-10-3 cEt gapmers targeting SEQ ID NO.: 1, and 2"}, "[7]": {"settings": "Table 18, A-431 cells, 5,000 cells per well, free uptake, 2,000 nM modified oligonucleotide, approx. 48 hours, RTS4814, normalized to RIBOGREEN, Yap1 mRNA as percent of untreated control"}, "[8]": {"settings": "Table 19, A-431 cells, 5,000 cells per well, free uptake, 2,000 nM modified oligonucleotide, approx. 48 hours, RTS4814, normalized to RIBOGREEN, Yap1 mRNA as percent of untreated control"}, "[9]": {"settings": "Table 5, A-431 cells, 5,000 cells per well, free uptake, 2,000 nM modified oligonucleotide, approx. 48 hours, RTS4814, normalized to RIBOGREEN, Yap1 mRNA relative to untreated control cells"}}, "note": "Strand notation (5' to 3'): a small letter for the sugar, then the base; units joined by * are phosphorothioate-linked, units joined directly phosphodiester-linked; [ ] holds rarer units or linkages, { } end groups; capitals alone tell only the bases. k = constrained ethyl (cEt); [5mC] = 5-methylcytosine; d = 2'-deoxy (DNA)"}
{"substance": "1074567 (antisense kA*kA*k[5mC]*d[5mC]*dT*dA*d[5mC]*dT*d[5mC]*dA*d[5mC]*dT*dG*kA*kA*kT) [Compound 1074567]", "values": [{"measurement": "YAP1 (% UTC)", "setting": "[1]", "result": 38, "unit": "% UTC"}]}
{"substance": "716415 (kA*kG*k[5mC]*dT*d[5mC]*d[5mC]*dT*d[5mC]*dT*d[5mC]*d[5mC]*dT*dT*k[5mC]*kT*kA; antisense) [Compound 716415]", "values": [{"measurement": "YAP1 (% UTC)", "setting": "[2]", "result": 90, "unit": "% UTC"}]}
{"substance": "716423 (kG*k[5mC]*kA*dA*dA*dA*dT*dA*dG*dA*dG*dG*dA*kT*kT*kA; antisense) [Compound 716423]", "values": [{"measurement": "YAP1 (% UTC)", "setting": "[3]", "result": 43, "unit": "% UTC"}]}
{"substance": "1074512 (kG*kG*kA*dT*dA*d[5mC]*dA*dT*dT*d[5mC]*d[5mC]*dA*d[5mC]*kT*kA*k[5mC]; antisense) [compound 1074512]", "values": [{"measurement": "YAP1 (% UTC)", "setting": "[4]", "result": 64, "unit": "% UTC"}]}
{"substance": "1075402 (antisense kG*kA*kG*d[5mC]*dA*dA*d[5mC]*dA*d[5mC]*dA*dA*dG*d[5mC]*kA*kT*kA) [Compound 1075402]", "values": [{"measurement": "YAP1 (% UTC)", "setting": "[5]", "result": 45, "unit": "% UTC"}]}
{"substance": "716487 (kA*k[5mC]*kA*d[5mC]*dA*dT*dA*d[5mC]*dT*d[5mC]*dT*dA*dG*kT*kT*kA; antisense) [Compound 716487]", "values": [{"measurement": "YAP1 (% UTC)", "setting": "[2]", "result": 64, "unit": "% UTC"}]}
{"substance": "1074867 (kT*kA*kA*d[5mC]*dA*dT*dA*dT*dG*dA*dG*d[5mC]*dA*kT*kG*k[5mC]; antisense) [compound 1074867]", "values": [{"measurement": "YAP1 (% UTC)", "setting": "Table 33, Yap1 mRNA, percent of untreated control, 3-10-3 cEt gapmers targeting SEQ ID NO.: 1, and 2", "result": 40, "unit": "% UTC"}]}
{"substance": "1074187 (antisense k[5mC]*kT*kG*d[5mC]*dG*dA*dA*dG*dG*d[5mC]*dG*dG*d[5mC]*kT*kG*k[5mC]) [Compound 1074187]", "values": [{"measurement": "YAP1 (% UTC)", "setting": "[6]", "result": 47, "unit": "% UTC"}]}
{"substance": "1076420 (k[5mC]*k[5mC]*kA*dT*dA*dT*dA*dA*dT*dA*dA*d[5mC]*d[5mC]*k[5mC]*kA*kT; antisense) [Compound 1076420]", "values": [{"measurement": "YAP1 (% UTC)", "setting": "[7]", "result": 26, "unit": "% UTC"}]}
{"substance": "1074503 (k[5mC]*kA*kA*d[5mC]*dT*dA*d[5mC]*dA*dA*dT*dA*dA*d[5mC]*k[5mC]*kA*kT; antisense) [Compound 1074503]", "values": [{"measurement": "YAP1 (% UTC)", "setting": "[1]", "result": 29, "unit": "% UTC"}]}
{"substance": "716391 (kG*kG*kA*dG*d[5mC]*dA*d[5mC]*dT*d[5mC]*dT*dG*dA*d[5mC]*kT*kG*kA; antisense) [Compound 716391]", "values": [{"measurement": "YAP1 (% UTC)", "setting": "[2]", "result": 44, "unit": "% UTC"}]}
{"substance": "1075044 (antisense kA*kA*kT*dT*dA*dG*dA*d[5mC]*dT*d[5mC]*d[5mC]*d[5mC]*d[5mC]*k[5mC]*kA*kA) [Compound 1075044]", "values": [{"measurement": "YAP1 (% UTC)", "setting": "[7]", "result": 58, "unit": "% UTC"}]}
{"substance": "1075434 (antisense kG*kT*kA*dA*dA*dA*dG*dA*dG*dG*dT*dG*d[5mC]*kA*kT*k[5mC]) [Compound 1075434]", "values": [{"measurement": "YAP1 (% UTC)", "setting": "[5]", "result": 96, "unit": "% UTC"}]}
{"substance": "1074533 (antisense kT*kA*kG*dA*dA*d[5mC]*dA*d[5mC]*dT*dA*dA*dA*d[5mC]*kT*kA*k[5mC]) [Compound 1074533]", "values": [{"measurement": "YAP1 (% UTC)", "setting": "[8]", "result": 80, "unit": "% UTC"}]}
{"substance": "716510 (antisense k[5mC]*kA*kA*d[5mC]*dA*dT*dG*d[5mC]*dT*dA*dT*dG*dT*kA*kA*kT) [Compound 716510]", "values": [{"measurement": "YAP1 (% UTC)", "setting": "[3]", "result": 122, "unit": "% UTC"}]}
{"substance": "716479 (kG*kA*kA*d[5mC]*dA*dA*dT*d[5mC]*dT*dT*dG*dA*dA*kG*kG*k[5mC]; antisense) [Compound 716479]", "values": [{"measurement": "YAP1 (% UTC)", "setting": "[9]", "result": 32, "unit": "% UTC"}]}
{"substance": "1075909 (kA*kA*kA*dT*dA*dA*dG*dG*dA*dG*dT*dA*dG*kG*kT*kG; antisense) [Compound 1075909]", "values": [{"measurement": "YAP1 (% UTC)", "setting": "[8]", "result": 93, "unit": "% UTC"}]}
{"substance": "1074992 (antisense k[5mC]*kA*kA*dT*dT*dA*dT*dT*dT*dG*dA*d[5mC]*dT*k[5mC]*k[5mC]*k[5mC]) [compound 1074992]", "values": [{"measurement": "YAP1 (% UTC)", "setting": "[4]", "result": 63, "unit": "% UTC"}]}
{"substance": "1075755 (kA*k[5mC]*kT*dT*dA*dA*dA*dT*dG*dG*d[5mC]*dA*d[5mC]*kA*kG*kT; antisense) [Compound 1075755]", "values": [{"measurement": "YAP1 (% UTC)", "setting": "[6]", "result": 73, "unit": "% UTC"}]}
{"substance": "716533 (antisense k[5mC]*kA*kA*dT*dT*d[5mC]*dA*dA*dG*dA*dA*dT*dA*k[5mC]*k[5mC]*k[5mC]) [Compound 716533]", "values": [{"measurement": "YAP1 (% UTC)", "setting": "[9]", "result": 64, "unit": "% UTC"}]}
{"substance": "1075115 (antisense kG*kT*kA*dT*dA*dG*d[5mC]*d[5mC]*dT*dT*dA*dT*dT*k[5mC]*kT*kT) [Compound 1075115]", "values": [{"measurement": "YAP1 (% UTC)", "setting": "[6]", "result": 6, "unit": "% UTC"}]}
{"substance": "716402 (kA*kT*kT*dT*dT*dG*dA*dG*dT*d[5mC]*d[5mC]*d[5mC]*dA*k[5mC]*k[5mC]*kA; antisense) [Compound 716402]", "values": [{"measurement": "YAP1 (% UTC)", "setting": "[3]", "result": 85, "unit": "% UTC"}]}
